Test results: ChEMBL document CHEMBL4017465 (Bioorg Med Chem Lett, 2017)

Experiments:
Cytochrome P450 1A2 = target: T1, Cytochrome P450 1A2 (Homo sapiens, UniProt P05177); experiment: Inhibition of recombinant human CYP1A2 expressed in insect cells using EOMCC as substrate pretreated for 10 mins followed by substrate addition measured every minute for 15 mins in presence of NADP+ by fluorescence assay; assay type: ADME
T1 sequence (P05177 whole entry): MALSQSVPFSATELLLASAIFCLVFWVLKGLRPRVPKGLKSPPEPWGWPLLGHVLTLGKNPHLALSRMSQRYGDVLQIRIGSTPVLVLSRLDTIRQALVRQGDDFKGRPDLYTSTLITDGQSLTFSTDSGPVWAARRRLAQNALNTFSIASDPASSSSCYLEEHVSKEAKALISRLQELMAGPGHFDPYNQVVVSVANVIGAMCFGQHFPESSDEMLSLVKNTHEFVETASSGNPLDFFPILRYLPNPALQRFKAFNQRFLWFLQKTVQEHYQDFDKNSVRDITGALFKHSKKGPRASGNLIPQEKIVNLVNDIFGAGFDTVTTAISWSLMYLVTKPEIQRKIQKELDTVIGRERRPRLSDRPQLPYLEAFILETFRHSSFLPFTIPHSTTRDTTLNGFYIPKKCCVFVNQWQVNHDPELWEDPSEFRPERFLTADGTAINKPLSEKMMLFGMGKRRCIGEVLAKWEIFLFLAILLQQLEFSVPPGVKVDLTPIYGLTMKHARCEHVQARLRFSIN

Cytochrome P450 3A4 = Cytochrome P450 3A4 (Homo sapiens, UniProt P08684); experiment: Inhibition of recombinant human CYP3A4 expressed in insect cells using DBOMF as substrate pretreated for 10 mins followed by substrate addition measured every minute for 15 mins in presence of NADP+ by fluorescence assay; assay type: ADME
CYP1A2 [1] = target: T2, CYP1A2 (Homo sapiens, UniProt P05177); experiment: Inhibition of recombinant human CYP1A2 expressed in insect cells at <10 uM using EOMCC as substrate pretreated for 10 mins followed by substrate addition measured every minute for 15 mins in presence of NADP+ by fluorescence assay relative to control; assay type: ADME; conditions: probe EOMCC
T2 sequence (P05177 whole entry): T1 sequence (P05177 whole entry)

CYP3A4 [2] = target: T3, CYP3A4 (Homo sapiens, UniProt P08684); experiment: Inhibition of recombinant human CYP3A4 expressed in insect cells at 100 uM using DBOMF as substrate pretreated for 10 mins followed by substrate addition measured every minute for 15 mins in presence of NADP+ by fluorescence assay relative to control; assay type: ADME; conditions: probe DBOMF
CYP1A2 [3] = target: T2, CYP1A2; experiment: Inhibition of recombinant human CYP1A2 expressed in insect cells at >1 uM using EOMCC as substrate pretreated for 10 mins followed by substrate addition measured every minute for 15 mins in presence of NADP+ by fluorescence assay relative to control; assay type: ADME; conditions: probe EOMCC
CYP1A2 [4] = target: T2, CYP1A2; experiment: Inhibition of recombinant human CYP1A2 expressed in insect cells at 1 uM using EOMCC as substrate pretreated for 10 mins followed by substrate addition measured every minute for 15 mins in presence of NADP+ by fluorescence assay relative to control; conditions: probe EOMCC
CYP3A4 [5] = target: T3, CYP3A4; experiment: Inhibition of recombinant human CYP3A4 expressed in insect cells at >= 1 uM using DBOMF as substrate pretreated for 10 mins followed by substrate addition measured every minute for 15 mins in presence of NADP+ by fluorescence assay relative to control; conditions: probe DBOMF
CYP1A2 [6] = target: T2, CYP1A2; experiment: Inhibition of recombinant human CYP1A2 expressed in insect cells at 10 uM using EOMCC as substrate pretreated for 10 mins followed by substrate addition measured every minute for 15 mins in presence of NADP+ by fluorescence assay relative to control; conditions: probe EOMCC
CYP1A2 [7] = target: T2, CYP1A2; experiment: Inhibition of recombinant human CYP1A2 expressed in insect cells at 20 uM using EOMCC as substrate pretreated for 10 mins followed by substrate addition measured every minute for 15 mins in presence of NADP+ by fluorescence assay relative to control; conditions: probe EOMCC
CYP1A2 [8] = target: T2, CYP1A2; experiment: Inhibition of recombinant human CYP1A2 expressed in insect cells at 0.01 uM using EOMCC as substrate pretreated for 10 mins followed by substrate addition measured every minute for 15 mins in presence of NADP+ by fluorescence assay relative to control; conditions: probe EOMCC

T3 sequence (P08684 whole entry): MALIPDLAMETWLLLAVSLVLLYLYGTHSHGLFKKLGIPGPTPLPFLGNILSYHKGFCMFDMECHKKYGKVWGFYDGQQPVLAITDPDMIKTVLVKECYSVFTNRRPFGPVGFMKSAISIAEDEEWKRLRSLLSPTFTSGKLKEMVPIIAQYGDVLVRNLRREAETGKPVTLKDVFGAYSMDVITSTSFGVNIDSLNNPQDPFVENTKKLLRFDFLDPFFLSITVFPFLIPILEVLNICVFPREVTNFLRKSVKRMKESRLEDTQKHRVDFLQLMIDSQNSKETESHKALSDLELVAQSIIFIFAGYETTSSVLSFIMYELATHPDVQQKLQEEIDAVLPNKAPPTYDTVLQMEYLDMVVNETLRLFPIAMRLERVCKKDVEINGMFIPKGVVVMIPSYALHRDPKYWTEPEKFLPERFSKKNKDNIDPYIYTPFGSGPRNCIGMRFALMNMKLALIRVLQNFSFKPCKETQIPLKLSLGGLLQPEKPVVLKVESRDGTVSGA
Cytochrome P450 3A4, sequence (P08684 whole entry): as above

| Compound | IC50 (Cytochrome P450 1A2) | IC50 (Cytochrome P450 3A4) | inhibition at 0.25 h (CYP1A2 [1]) | inhibition at 0.25 h, 100 µM (CYP3A4 [2]) | other results |
| --- | --- | --- | --- | --- | --- |
| COc1ccc(CNc2c3c(nc4cc(Cl)ccc24)CCCC3)cc1OC | 8.5 µM | 13.8 µM | < 50% | 90% |  |
| Clc1ccc2c(NCc3ccccn3)c3c(nc2c1)CCCC3 | 0.24 µM | 9.1 µM |  | 90% | inhibition at 0.25 h (CYP1A2 [3]): > 80% |
| COc1ccc(CNc2c3c(nc4ccccc24)CCCC3)cc1OC | 33 µM | 3.7 µM | < 50% | 90% |  |
| COc1ccc(CCNc2c3c(nc4cc(Cl)ccc24)CCCC3)cc1OC | 22.3 µM |  | < 50% |  |  |
| O=c1cc(-c2ccccc2)oc2c1ccc1ccccc12 [ALPHA-NAPHTHOFLAVONE] |  |  |  |  | inhibition at 0.25 h, 1 µM (CYP1A2 [4]): > 80% |
| CC(=O)N1CCN(c2ccc(OCC3COC(Cn4ccnc4)(c4ccc(Cl)cc4Cl)O3)cc2)CC1 (configuration not stated) [KETOCONAZOLE] |  |  |  |  | inhibition at 0.25 h (CYP3A4 [5]): > 85% |
| Nc1c2c(nc3ccccc13)CCCC2 [TACRINE] | 1.5 µM |  |  | 55% | inhibition at 0.25 h, 1 µM (CYP1A2 [4]): 45%; inhibition at 0.25 h, 10 µM (CYP1A2 [6]): 75%; inhibition at 0.25 h, 20 µM (CYP1A2 [7]): 75%; inhibition at 0.25 h, 0.01 µM (CYP1A2 [8]): 14% |
